# Earlier results as cited in patent US9572894B2, “Biodegradable particulate formulations” (The University of Iowa Research Foundation, priority 2010, dated 2017).
# System: gliomas
# Details: ten daily i.t. injections
structure (smiles),measurement,value
COc1cccc2c1C(=O)c1c(O)c3c(c(O)c1C2=O)C[C@@](O)(C(=O)CO)C[C@@H]3O[C@H]1C[C@H](N)[C@H](O)[C@H](C)O1 [doxorubicin],reported toxicity,limited to headache
same,subjects with local regression,six of the ten
